± gives the expanded uncertainty stated by the source.
Conditions: 298.15 K; 101.33 kPa; Liquid; Vibrating tube method
`CCC(C)(C)N` [1,1-dimethylpropylamine] showed a molar volume of 0.0001192 ± 1.3e-07 m3/mol.
`CCCCCCCCCN` [1-aminononane] showed a molar volume of 0.0001829 ± 1.8e-07 m3/mol.
`CCCCN` [1-butanamine] showed a molar volume of 9.987e-05 ± 1e-07 m3/mol.
`CCCCCCCCCCN` [1-decanamine] gave a molar volume of 0.000199 ± 2e-07 m3/mol.
With `CCCCCCCCCCCCN` [1-dodecanamine] the molar volume was 0.0002323 ± 2e-07 m3/mol.
In the case of `CCC(N)CC` [1-ethylpropylamine], the molar volume is reported as 0.0001172 ± 2.4e-07 m3/mol.
With `CCCCCCCN` [1-heptanamine] the molar volume was 0.0001496 ± 1.1e-07 m3/mol.
Work on `CCCCCCN` [1-hexanamine] yielded a molar volume of 0.0001331 ± 1.1e-07 m3/mol.
`CCCCCCCCN` [1-octanamine] showed a molar volume of 0.0001662 ± 1.1e-07 m3/mol.
In the case of `CCCCCN` [1-pentanamine], the molar volume is reported as 0.0001163 ± 1.1e-07 m3/mol.
`CCCCCCCCCCCCCCN` [1-tetradecanamine] showed a molar volume of 0.0002655 ± 1e-07 m3/mol.
For `CCC(C)N` (stereo not drawn) [2-butanamine], the molar volume was 0.0001019 ± 1.1e-07 m3/mol.
Molecule `CC(C)CN` [2-methyl-1-propanamine] has a molar volume of 0.000101 ± 1e-07 m3/mol.
In the case of `CC(C)(C)N` [2-methyl-2-propanamine], the molar volume is reported as 0.0001065 ± 1e-07 m3/mol.
`CC(C)N` [2-propanamine] showed a molar volume of 8.672e-05 ± 1e-07 m3/mol.
`CC(C)CCN` [3-methyl-1-butanamine] gave a molar volume of 0.000117 ± 1.1e-07 m3/mol.
In the case of `CCCCCCC` [heptane], the molar volume is reported as 0.0001475 ± 1.1e-07 m3/mol.
`CCCN` [propan-1-amine] gave a molar volume of 8.315e-05 ± 1e-07 m3/mol.

— the NIST ThermoML archive (doi:10.1016/j.jct.2010.12.025)
